{"source": "paper PMC12203311", "about": "“Design, synthesis, in silico and in vitro evaluation of pyrrole–indole hybrids as dual tubulin and aromatase inhibitors with potent anticancer activities” (RSC Advances, 2025)", "key": {"OVCAR-3": {"tested_on": "OVCAR-3", "assay": "NCI60 five-dose screen", "format": "cell-based", "conditions": "Homo sapiens, OVCAR-3, ovarian cancer"}, "OVCAR-8": {"tested_on": "OVCAR-8", "assay": "NCI60 five-dose screen", "format": "cell-based", "conditions": "Homo sapiens, OVCAR-8, ovarian cancer"}, "HL-60 (TB)": {"tested_on": "HL-60 (TB)", "assay": "NCI60 five-dose screen", "format": "cell-based", "conditions": "Homo sapiens, leukemia"}, "BT-549": {"tested_on": "BT-549", "assay": "NCI60 five-dose screen", "format": "cell-based", "conditions": "Homo sapiens, BT-549, breast cancer"}, "PC-3": {"tested_on": "PC-3", "assay": "NCI60 five-dose screen", "format": "cell-based", "conditions": "Homo sapiens, PC-3, prostate cancer"}, "HCT-15": {"tested_on": "HCT-15", "assay": "NCI60 five-dose screen", "format": "cell-based", "conditions": "Homo sapiens, HCT-15, colon cancer"}, "NCI-H226": {"tested_on": "NCI-H226", "assay": "NCI60 five-dose screen", "format": "cell-based", "conditions": "Homo sapiens, NCI-H226, NSC lung cancer"}, "IGROV1": {"tested_on": "IGROV1", "assay": "NCI60 five-dose screen", "format": "cell-based", "conditions": "Homo sapiens, IGROV-1; IGROV1, ovarian cancer"}, "M14": {"tested_on": "M14", "assay": "NCI60 five-dose screen", "format": "cell-based", "conditions": "Homo sapiens, M14, melanoma"}, "MOLT-4": {"tested_on": "MOLT-4", "assay": "NCI60 five-dose screen", "format": "cell-based", "conditions": "Homo sapiens, MOLT-4, leukemia"}, "DU-145": {"tested_on": "DU-145", "assay": "NCI60 five-dose screen", "format": "cell-based", "conditions": "Homo sapiens, DU-145, prostate cancer"}, "UACC-257": {"tested_on": "UACC-257", "assay": "NCI60 five-dose screen", "format": "cell-based", "conditions": "Homo sapiens, UACC-257, melanoma"}, "MDA-MB-435": {"tested_on": "MDA-MB-435", "assay": "NCI60 five-dose screen", "format": "cell-based, human", "conditions": "Homo sapiens"}, "MDA-MB-468": {"tested_on": "MDA-MB-468", "assay": "NCI60 five-dose screen", "format": "cell-based", "conditions": "Homo sapiens, MDA-MB-468, breast cancer"}, "LOX IMVI": {"tested_on": "LOX IMVI", "assay": "NCI60 five-dose screen", "format": "cell-based", "conditions": "Homo sapiens, melanoma"}, "SK-MEL-2": {"tested_on": "SK-MEL-2", "assay": "NCI60 five-dose screen", "format": "cell-based", "conditions": "Homo sapiens, SK-MEL-2, melanoma"}, "NCI-H460": {"tested_on": "NCI-H460", "assay": "NCI60 five-dose screen", "format": "cell-based", "conditions": "Homo sapiens, NCI-H460, NSC lung cancer"}, "HT29": {"tested_on": "HT29", "assay": "NCI60 five-dose screen", "format": "cell-based", "conditions": "Homo sapiens, HT-29, HT29, colon cancer"}, "RPMI-8226": {"tested_on": "RPMI-8226", "assay": "NCI60 five-dose screen", "format": "cell-based", "conditions": "Homo sapiens, RPMI-8226, leukemia"}, "CAKI-1": {"tested_on": "CAKI-1", "assay": "NCI60 five-dose screen", "format": "cell-based", "conditions": "Homo sapiens, CAKI-1, renal cancer"}, "HS 578T": {"tested_on": "HS 578T", "assay": "NCI60 five-dose screen", "format": "cell-based", "conditions": "Homo sapiens, breast cancer"}, "HCT-116": {"tested_on": "HCT-116", "assay": "NCI60 five-dose screen", "format": "cell-based", "conditions": "Homo sapiens, HCT-116, colon cancer"}, "OVCAR-5": {"tested_on": "OVCAR-5", "assay": "NCI60 five-dose screen", "format": "cell-based", "conditions": "Homo sapiens, OVCAR-5, ovarian cancer"}, "HOP-62": {"tested_on": "HOP-62", "assay": "NCI60 five-dose screen", "format": "cell-based", "conditions": "Homo sapiens, HOP-62, NSC lung cancer"}, "HOP-92": {"tested_on": "HOP-92", "assay": "NCI60 five-dose screen", "format": "cell-based", "conditions": "Homo sapiens, HOP-92, NSC lung cancer"}, "NCI-H23": {"tested_on": "NCI-H23", "assay": "NCI60 five-dose screen", "format": "cell-based", "conditions": "Homo sapiens, NCI-H23, NSC lung cancer"}, "HCC-2998": {"tested_on": "HCC-2998", "assay": "NCI60 five-dose screen", "format": "cell-based", "conditions": "Homo sapiens, HCC-2998, colon cancer"}, "MDA-MB-231/ATCC": {"tested_on": "MDA-MB-231/ATCC", "assay": "NCI60 five-dose screen", "format": "cell-based", "conditions": "Homo sapiens, breast cancer"}, "[1]": {"tested_on": "T47D breast cancer cell line", "assay": "Cytotoxicity MTT assay, T47D", "format": "cell-based, human", "conditions": "10 µM and 50 µM", "method": "T47D (ATCC HTB-133) was purchased from Biomedia (Thailand) Co., LTD. L929 (ATCC CCL-1) was received as a gift from Prof. Tanapat Palaga, Department of Microbiology, Faculty of Science, Chulalongkorn University, Bangkok, Thailand. The cells were cultured in Dulbecco's Modified Eagle's Medium (DMEM; Gibco) supplemented with 10% fetal bovine serum (FBS; HyClone), 100 U mL^−1 penicillin and 100 µg mL^−1 streptomycin (Gibco) at 37 °C with 5% CO2.\nThe antiproliferative activity was determined by MTT assay. Briefly, the cells were plated into a 96-well microplate at the density of 10 000 cells per well. The cells were allowed to grow overnight before treated with the solutions of compounds in culture medium at the designated concentrations for 48 hours. The medium was then replaced with MTT solution (0.5 mg mL^−1 MTT in culture medium) and incubated for 3 hours. A 100 µL of DMSO was used to dissolve the produced formazan. Absorbance at 570 nm was then measured using a microplate reader (Varioskan™ LUX multimode microplate reader, Thermo Scientific™). Percent viability was calculated relative to the vehicle control (DMSO)."}, "SF-295": {"tested_on": "SF-295", "assay": "NCI60 five-dose screen", "format": "cell-based", "conditions": "Homo sapiens, SF-295, CNS cancer"}, "[2]": {"conditions": "read-out: LC50 (the source's name)"}}, "data": [{"smiles": "O=C(N/N=C/c1ccc([N+](=O)[O-])[nH]1)c1[nH]c2ccc(Br)cc2c1-c1ccccc1", "note": "[Derivative 3p, (E)-5-Bromo-N′-((5-nitro-1H-pyrrol-2-yl)methylene)-3-phenyl-1H-indole-2-carbohydrazide]", "values": [{"measurement": "GI50", "setting": "OVCAR-3", "result": 602, "unit": "nM"}, {"measurement": "CC50", "setting": "OVCAR-3; [2]", "result": 34800, "unit": "nM"}, {"measurement": "GI50", "setting": "OVCAR-8", "result": 1020, "unit": "nM"}, {"measurement": "CC50", "setting": "OVCAR-8; [2]", "result": 39000, "unit": "nM"}, {"measurement": "GI50", "setting": "HL-60 (TB)", "result": 374, "unit": "nM"}, {"measurement": "CC50", "setting": "HL-60 (TB); [2]", "result": "> 100000", "unit": "nM"}, {"measurement": "GI50", "setting": "BT-549", "result": 1520, "unit": "nM"}, {"measurement": "CC50", "setting": "BT-549; [2]", "result": 28400, "unit": "nM"}, {"measurement": "GI50", "setting": "PC-3", "result": 1200, "unit": "nM"}, {"measurement": "CC50", "setting": "PC-3; [2]", "result": 78500, "unit": "nM"}, {"measurement": "GI50", "setting": "HCT-15", "result": 607, "unit": "nM"}, {"measurement": "CC50", "setting": "HCT-15; [2]", "result": 35700, "unit": "nM"}, {"measurement": "GI50", "setting": "NCI-H226", "result": 2430, "unit": "nM"}, {"measurement": "CC50", "setting": "NCI-H226; [2]", "result": 46900, "unit": "nM"}, {"measurement": "GI50", "setting": "IGROV1", "result": 1480, "unit": "nM"}, {"measurement": "GI50", "setting": "M14", "result": 652, "unit": "nM"}, {"measurement": "CC50", "setting": "M14; [2]", "result": 37000, "unit": "nM"}, {"measurement": "GI50", "setting": "MOLT-4", "result": 537, "unit": "nM"}, {"measurement": "CC50", "setting": "MOLT-4; [2]", "result": "> 100000", "unit": "nM"}, {"measurement": "GI50", "setting": "DU-145", "result": 1840, "unit": "nM"}, {"measurement": "CC50", "setting": "DU-145; [2]", "result": 32500, "unit": "nM"}, {"measurement": "GI50", "setting": "UACC-257", "result": 3120, "unit": "nM"}, {"measurement": "CC50", "setting": "UACC-257; [2]", "result": 48200, "unit": "nM"}, {"measurement": "CC50", "setting": "MDA-MB-435; MDA-MB-435, MDA-MB-435, melanoma, read-out: LC50 (the source's name)", "result": 29800, "unit": "nM"}, {"measurement": "GI50", "setting": "MDA-MB-435; MDA-MB-435, melanoma", "result": 253, "unit": "nM"}, {"measurement": "GI50", "setting": "MDA-MB-468", "result": 873, "unit": "nM"}, {"measurement": "CC50", "setting": "MDA-MB-468; [2]", "result": 34700, "unit": "nM"}, {"measurement": "GI50", "setting": "LOX IMVI", "result": 519, "unit": "nM"}, {"measurement": "CC50", "setting": "LOX IMVI; [2]", "result": 35800, "unit": "nM"}, {"measurement": "GI50", "setting": "SK-MEL-2", "result": 2180, "unit": "nM"}, {"measurement": "CC50", "setting": "SK-MEL-2; [2]", "result": 36500, "unit": "nM"}, {"measurement": "GI50", "setting": "NCI-H460", "result": 421, "unit": "nM"}, {"measurement": "CC50", "setting": "NCI-H460; [2]", "result": 45900, "unit": "nM"}, {"measurement": "GI50", "setting": "HT29", "result": 550, "unit": "nM"}, {"measurement": "CC50", "setting": "HT29; [2]", "result": 43900, "unit": "nM"}, {"measurement": "GI50", "setting": "RPMI-8226", "result": 468, "unit": "nM"}, {"measurement": "CC50", "setting": "RPMI-8226; [2]", "result": "> 100000", "unit": "nM"}, {"measurement": "GI50", "setting": "CAKI-1", "result": 411, "unit": "nM"}, {"measurement": "CC50", "setting": "CAKI-1; [2]", "result": 34900, "unit": "nM"}, {"measurement": "GI50", "setting": "HS 578T", "result": 270, "unit": "nM"}, {"measurement": "CC50", "setting": "HS 578T; [2]", "result": 94300, "unit": "nM"}, {"measurement": "GI50", "setting": "HCT-116", "result": 439, "unit": "nM"}, {"measurement": "CC50", "setting": "HCT-116; [2]", "result": 33800, "unit": "nM"}, {"measurement": "GI50", "setting": "OVCAR-5", "result": 2870, "unit": "nM"}, {"measurement": "CC50", "setting": "OVCAR-5; [2]", "result": 40900, "unit": "nM"}, {"measurement": "GI50", "setting": "HOP-62", "result": 606, "unit": "nM"}, {"measurement": "CC50", "setting": "HOP-62; [2]", "result": 39500, "unit": "nM"}, {"measurement": "GI50", "setting": "HOP-92", "result": 1790, "unit": "nM"}, {"measurement": "CC50", "setting": "HOP-92; [2]", "result": 47300, "unit": "nM"}, {"measurement": "GI50", "setting": "NCI-H23", "result": 1450, "unit": "nM"}, {"measurement": "CC50", "setting": "NCI-H23; [2]", "result": 35400, "unit": "nM"}, {"measurement": "GI50", "setting": "HCC-2998", "result": 1670, "unit": "nM"}, {"measurement": "CC50", "setting": "HCC-2998; [2]", "result": 19600, "unit": "nM"}, {"measurement": "GI50", "setting": "MDA-MB-231/ATCC", "result": 2140, "unit": "nM"}, {"measurement": "CC50", "setting": "MDA-MB-231/ATCC; [2]", "result": 46600, "unit": "nM"}, {"measurement": "activity against T47D in two-dose screen", "setting": "[1]", "result": "weak activity"}, {"measurement": "GI50", "setting": "SF-295", "result": 413, "unit": "nM"}, {"measurement": "CC50", "setting": "SF-295; [2]", "result": 29900, "unit": "nM"}]}]}
